Results as given in patent US7589206B2, “Pyrrolopyridine derivatives” (Glaxo Group Limited, priority 2004, dated 2009).
Entries after “also recorded” stand apart in the source; their conditions may differ. Where a name gives a salt, the structure may show the parent alone. Read-outs that look alike come from different tables or passages of the source. Blank lines part the entries; values can stand above or below the compound they belong to.

Assays:
Type in all cases: cell-based
[1] = molecular target: T1, human recombinant CB2 receptors (Homo sapiens, UniProt P34972); test: CB2 agonist effects in a reporter gene assay (CHO-K1 CB2 CRE-LUC cells, inhibition of forskolin response); conditions: 'active except' = excluded from the actives, i.e. not active
T1 construct: expressed in transfected cells; host or cells: CHO-K1 CB2 CRE-LUC cells
Method: CB2 agonist effects were determined using a reporter gene assay. These studies were performed using a CHO-K1 cell line expressing human recombinant CB2 receptors (CHO-K1 CB2 CRE-LUC cells). These cells additionally express a “CRE-LUC” reporter gene construct comprising the gene for luciferase under the control of multiple cAMP response element binding protein promoters. In these cells, increases in intracellular cAMP levels leads to transcription of the luciferase gene and the subsequent production of luciferase. The expression of luciferase is measured by addition to the cells of a proprietary mixture containing luciferin, the substrate for luciferase (Luclite, Perkin Elmer, Cat No 6016919). The resultant reaction leads to the generation of light which is measured in a TopCount scintillation counter. […]
CHO-K1 CB2 CRE-LUC cells were grown in DMEM/F12 plus glutamax I medium (Gibco Cat. No. 31331-028), supplemented with 9% FBS (Gibco, Cat. No. 16000-040) and 0.5 mg·ml^−1 G418 (Gibco, Cat. No. 10131-027) and 0.5 mg·ml^−1 Hygromycin (Invitrogen, Cat. No. 10687-010). […] Finally, luminescence was measured using a Packard TopCount scintillation counter. Data Analysis For each compound maximal inhibition of the forskolin response and the EC50 for this effect was determined. […]

[2] = molecular target: T2, human cannabinoid CB2 receptor (Homo sapiens, UniProt P34972); test: Cannabinoid CB2 receptor agonist activity in yeast cells expressing the receptor (FDGlu fluorescence); conditions: for CB2 activity at the cloned human cannabinoid CB2 receptor (in words): b47 says only 'the assay used'
T2 construct: expressed in transfected cells; host or cells: Saccharomyces cerevisiae strain MMY23 (Gpa1/Galphai3 chimeric G-protein alpha subunit)
Method: The cannabinoid CB2 receptor agonist activity of compounds of formula (I) was determined in accordance with the following experimental method.
(§1) Yeast (Saccharomyces cerevisiae) cells expressing the human cannabinoid CB2 receptor were generated by integration of an expression cassette into the ura3 chromosomal locus of yeast strain MMY23. This cassette consisted of DNA sequence encoding the human CB2 receptor flanked by the yeast GPD promoter to the 5′ end of CB2 and a yeast transcriptional terminator sequence to the 3′ end of CB2. MMY23 expresses a yeast/mammalian chimeric G-protein alpha subunit in which the C-terminal 5 amino acids of Gpa1 are replaced with the C-terminal 5 amino acids of human Gαi3 (as described in Brown et al. (2000), Yeast 16:11-22). Cells were grown at 30° C. in liquid Synthetic Complete (SC) yeast media (Guthrie and Fink (1991), Methods in Enzymology, Vol. 194) lacking uracil, tryptophan, adenine and leucine to late logarithmic phase (approximately 6 OD600/m).
Agonists were prepared as 10 mM solutions in DMSO. EC50 values (the concentration required to produce 50% maximal response) were estimated using dilutions of between 3- and 5-fold (BiomekFX, Beckman) into DMSO. Agonist solutions in DMSO (1% final assay volume) were transferred into black microtitre plates from NUNC (96- or 384-well). Cells were suspended at a density of 0.2 OD600/ml in SC media lacking histidine, uracil, tryptophan, adenine and leucine and supplemented with 10 mM 3-aminotriazole, 0.1M sodium phosphate pH 7.0, and 20μM fluorescein di-β-D-glucopyranoside(FDGlu). This mixture (50 ul per well) was added to agonist in the assay plates (Multidrop 384, Labsystems). After incubation at 30° C. for 24 hours, fluorescence resulting from degradation of FDGlu to fluorescein due to exoglucanase, an endogenous yeast enzyme produced during agonist-stimulated cell growth, was determined using a fluorescence microtitre plate reader (Tecan Spectrofluor or LJL Analyst excitation wavelength: 485 nm; emission wavelength: 535 nm). Fluorescence was plotted against compound concentration and iteratively curve fitted using a four parameter fit to generate a concentration effect value. Efficacy (Emax) was calculated from the equation Emax=Max[compound X]−Min[compound X]/Max[HU210]−Min[HU210]×100%
(§2) where Max[compound X] and Min[compound X] are the fitted maximum and minimum respectively from the concentration effect curve for compound X, and Max[HU210] and Min[HU210] are the fitted maximum and minimum respectively from the concentration effect curve for (6aR,10aR)-3-(1,1′-Dimethylheptyl)-6a,7,10,10a-tetrahydro-1-hydroxy-6,6-dimethyl-6H-dibenzo[b,d]pyran-9-methanol (HU210; available from Tocris). Equieffective molar ratio (EMR) values were calculated from the equation EMR=EC50 [compound X]/EC50 [HU210]
(§3) Where EC50 [compound X] is the EC50 of compound X and EC50 [HU210] is the EC50 of HU210.

[3] = molecular target: T3, human cannabinoid CB1 receptor (Homo sapiens, UniProt P21554); test: Cannabinoid CB1 receptor agonist activity in yeast cells expressing the receptor (FDGlu fluorescence); conditions: yeast assay, individual values of the exceptions; for EC50: read-out: EC50 at the cloned human cannabinoid CB1 receptor; for Emax: relative to HU210, read-out: efficacy (Emax) at the cloned human cannabinoid CB1 receptor
T3 construct: expressed in transfected cells; host or cells: Saccharomyces cerevisiae strain MMY23 (Gpa1/Galphai3 chimeric G-protein alpha subunit)
Method: The cannabinoid CB1 receptor agonist activity of compounds of formula (I) was determined in accordance with the following experimental method.
as §1, with “CB1” for “CB2”, “CB1.” for “CB2.”, “OD600/ml).” for “OD600/m).”
Agonists were prepared as 10 mM stocks in DMSO. EC50 values (the concentration required to produce 50% maximal response) were estimated using dilutions of between 3- and 5-fold (BiomekFX, Beckman) into DMSO. Agonist solutions in DMSO (1% final assay volume) were transferred into black, clear bottom, microtitre plates from NUNC (96- or 384-well). Cells were suspended at a density of 0.2 OD600/ml in SC media lacking histidine, uracil, tryptophan, adenine and leucine and supplemented with 10 mM 3-aminotriazole, 0.1M sodium phosphate pH 7.0, and 20 μM fluorescein di-β-D-glucopyranoside (FDGlu). This mixture (50 ul per well for 384-well plates, 200 ul per well for 96-well plates) was added to agonist in the assay plates (Multidrop 384, Labsystems). After incubation at 30° C. for 24 hours, fluorescence resulting from degradation of FDGlu to fluorescein due to exoglucanase, an endogenous yeast enzyme produced during agonist-stimulated cell growth, was determined using a Spectrofluor microtitre plate reader (Tecan; excitation wavelength: 485 nm; emission wavelength: 535 nm). Fluorescence was plotted against compound concentration and iteratively curve fitted using a four parameter fit to generate a concentration effect value. Efficacy (Emax) was calculated from the equation Emax=Max[compound X]−Min[compound X]/Max[HU210]−Min[HU210]×100%
as §2, §3

T2 sequence (P34972 whole entry): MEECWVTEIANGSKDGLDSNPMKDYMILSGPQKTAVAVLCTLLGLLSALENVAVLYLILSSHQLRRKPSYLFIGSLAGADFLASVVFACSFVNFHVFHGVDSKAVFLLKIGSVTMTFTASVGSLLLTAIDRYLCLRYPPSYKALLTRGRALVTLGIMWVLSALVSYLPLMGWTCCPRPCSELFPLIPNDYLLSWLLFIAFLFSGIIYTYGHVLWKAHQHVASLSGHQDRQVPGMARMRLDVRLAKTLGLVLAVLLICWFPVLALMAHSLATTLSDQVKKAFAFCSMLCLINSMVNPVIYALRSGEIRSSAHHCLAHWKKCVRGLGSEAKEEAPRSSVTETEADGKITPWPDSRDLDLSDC
T3 sequence (P21554 whole entry): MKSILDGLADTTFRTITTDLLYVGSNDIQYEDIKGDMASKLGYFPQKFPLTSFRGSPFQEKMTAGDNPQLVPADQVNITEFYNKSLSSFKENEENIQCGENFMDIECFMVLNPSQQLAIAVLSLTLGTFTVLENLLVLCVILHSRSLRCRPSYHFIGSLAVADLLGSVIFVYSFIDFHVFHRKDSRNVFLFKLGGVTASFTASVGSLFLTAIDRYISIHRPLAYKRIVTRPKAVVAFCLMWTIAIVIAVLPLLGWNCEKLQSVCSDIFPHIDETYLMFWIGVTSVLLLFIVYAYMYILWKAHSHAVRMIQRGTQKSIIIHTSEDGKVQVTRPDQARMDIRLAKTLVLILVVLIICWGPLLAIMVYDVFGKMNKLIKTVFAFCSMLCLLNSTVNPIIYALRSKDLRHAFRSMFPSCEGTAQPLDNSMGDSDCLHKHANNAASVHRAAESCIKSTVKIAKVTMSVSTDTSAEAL
T1 sequence (P34972 whole entry): as the sequence (P34972 whole entry) above

- CB2 agonist activity in reporter gene assay (in words) [1]: active except
SMILES: Cc1c[nH]c2c(N3CCOCC3)ncc(C(=O)NC3CCOCC3)c12.Cl [Example 22, 3-methyl-7-morpholin-4-yl-1H-pyrrolo[2,3-c]pyridine-4-carboxylic acid (tetrahydro-pyran-4-yl)-amide]
- CB2 activity at the cloned human cannabinoid CB2 receptor (in words) ([2]; yeast assay): inactive; also recorded: did not appear to have CB2 activity

- CB2 agonist activity in reporter gene assay (in words) [1]: active except
SMILES: Cc1c[nH]c2c(N3CCOCC3)ncc(C(=O)NCC3CCOCC3)c12.Cl [Example 23, 3-methyl-7-morpholin-4-yl-1H-pyrrolo[2,3-c]pyridine-4-carboxylic acid (tetrahydro-pyran-4-ylmethyl)-amide]
- CB2 activity at the cloned human cannabinoid CB2 receptor (in words) ([2]; yeast assay): inactive; also recorded: did not appear to have CB2 activity

SMILES: CN(c1cccc(Cl)c1)c1ncc(C(=O)NCC2CCC2)c2c1ccn2C [Example 67, 4-[(3-Chloro-phenyl)-methyl-amino]-1-methyl-1H-pyrrolo[3,2-c]pyridine-7-carboxylic acid cyclobutylmethyl amide hydrochloride]
- EC50 [2]: 0.3 to 1 µM

SMILES: COc1ccccc1Nc1ncc(C(=O)N2CCOCC2)c2c(C)c[nH]c12 [Example 72, 1-[7-(2-Methoxy-phenylamino)-3-methyl-1H-pyrrolo[2,3-c]pyridin-4-yl]-1-morpholin-4-yl-methanone hydrochloride salt]
- EC50 [2]: 0.3 to 1 µM

SMILES: Cn1ccc2c(Nc3cc(Cl)cc(Cl)c3)ncc(C(=O)N3CCOCC3)c21 [Example 124, N-(3,5-Dichlorophenyl)-1-methyl-7-(4-morpholinylcarbonyl)-1H-pyrrolo[3,2-c]pyridin-4-amine hydrochloride]
- EC50 [3]: 0.508 µM
- Emax [3]: 75%

SMILES: Cn1ccc2c(Nc3ccc(C#N)c(Cl)c3)ncc(C(=O)N3CCOCC3)c21 [Example 130, 2-Chloro-4-{[1-methyl-7-(4-morpholinylcarbonyl)-1H-pyrrolo[3,2-c]pyridin-4-yl]amino}benzonitrile hydrochloride]
- EC50 [3]: 0.897 µM
- Emax [3]: 30%

SMILES: Cn1ccc2c(Nc3ccc(C#N)c(Br)c3)ncc(C(=O)N3CCOCC3)c21 [Example 162, 2-Bromo-4-{[1-methyl-7-(4-morpholinylcarbonyl)-1H-pyrrolo[3,2-c]pyridin-4-yl]amino}benzonitrile hydrochloride]
- EC50 [3]: 0.801 µM
- Emax [3]: 33%

SMILES: Cc1cc(F)ccc1Nc1ncc(C(=O)N2CCOCC2)c2c1ccn2C [Example 183, N-(4-Fluoro-2-methylphenyl)-1-methyl-7-(4-morpholinylcarbonyl)-1H-pyrrolo[3,2-c]pyridin-4-amine hydrochloride]
- EC50 ([2]; yeast assay, read-out: EC50 at the cloned human cannabinoid CB2 receptor): 0.3 to 1 µM

SMILES: Cc1ccc(Nc2ncc(C(=O)N3CCOCC3)c3c2ccn3C)c(C)c1 [Example 184, N-(2,4-Dimethylphenyl)-1-methyl-7-(4-morpholinylcarbonyl)-1H-pyrrolo[3,2-c]pyridin-4-amine hydrochloride]
- EC50 [2]: 0.3 to 1 µM

SMILES: Cn1ccc2c(Nc3cccc(Cl)c3)ncc(C(=O)N3CCSCC3)c21 [Example 237, N-(3-Chlorophenyl)-1-methyl-7-(4-thiomorpholinylcarbonyl)-1H-pyrrolo[3,2-c]pyridin-4-amine]
- EC50 [3]: 0.738 µM
- Emax [3]: 92%
